Active and inactive are the calls of the source.
Legend:
HeLa = test: ATP-based viability loss in HeLa cells – cell-based, CellTiter-Glo luminescence, cherry-pick samples, cytotoxicity control for MITF activator project, dose response (AID 540259); format: functional; settings: Homo sapiens
Escherichia coli [1] = test: microbe, parasite or virus in culture
CAAX prenyl protease 2 [2] = molecular target: CAAX prenyl protease 2 (Homo sapiens, UniProt Q9Y256); test: inhibition of Ras-converting CAAX protease Rce1 – biochemical, yeast membranes, quenched-peptide fluorescence, cherry-pick, dose response (AID 588849)
Trypsin = Trypsin (Sus scrofa, UniProt P00761); test: trypsin protease activity blockade – biochemical, quenched peptide fluorescence, cherry-pick, selectivity assay for Rce1 protease inhibitor project, dose response (AID 488789)
[3] = system: Streptococcus sp. 'group A'; test: Streptococcus pyogenes SK(-)GAS viability under kanamycin – luminescence, BacTiterGlo, confirmation, counter-screen for streptokinase expression inhibitor project, dose response (AID 1900); format: functional, organism-based
[4] = molecular target: T1, Zinc finger protein mex-5 (Caenorhabditis elegans, UniProt Q9XUB2); test: potency of MEX-5 RNA-binding blockers – biochemical, C. elegans, fluorescence polarization, dose response (AID 1960)
T1 sequence (Q9XUB2 whole entry): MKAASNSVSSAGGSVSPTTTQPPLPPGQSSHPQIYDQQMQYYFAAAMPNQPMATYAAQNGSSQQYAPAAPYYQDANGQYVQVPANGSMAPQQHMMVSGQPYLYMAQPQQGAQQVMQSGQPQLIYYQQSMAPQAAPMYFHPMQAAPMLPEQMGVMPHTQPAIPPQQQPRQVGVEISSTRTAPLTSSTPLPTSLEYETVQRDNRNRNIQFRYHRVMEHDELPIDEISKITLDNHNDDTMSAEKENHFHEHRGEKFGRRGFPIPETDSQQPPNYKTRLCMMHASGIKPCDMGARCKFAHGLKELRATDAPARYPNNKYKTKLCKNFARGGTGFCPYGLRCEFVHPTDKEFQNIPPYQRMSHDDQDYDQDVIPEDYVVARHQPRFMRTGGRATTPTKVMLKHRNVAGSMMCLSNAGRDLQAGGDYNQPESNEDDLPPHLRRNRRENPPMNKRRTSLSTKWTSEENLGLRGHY

Escherichia coli [5] = test: microbe, parasite or virus in culture; remark: listed apart in the source
[6] = molecular target: T2, RNA-binding protein pos-1 (Caenorhabditis elegans, UniProt G5EF15); test: disruptors of C. elegans POS-1 RNA interaction – biochemical, fluorescence polarization, dose response (AID 1964);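 note: purified POS-1 fused to maltose binding protein made in E. coli; potency of compounds blocking POS-1 binding to fluorescent RNA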
T2 sequence (G5EF15 whole entry): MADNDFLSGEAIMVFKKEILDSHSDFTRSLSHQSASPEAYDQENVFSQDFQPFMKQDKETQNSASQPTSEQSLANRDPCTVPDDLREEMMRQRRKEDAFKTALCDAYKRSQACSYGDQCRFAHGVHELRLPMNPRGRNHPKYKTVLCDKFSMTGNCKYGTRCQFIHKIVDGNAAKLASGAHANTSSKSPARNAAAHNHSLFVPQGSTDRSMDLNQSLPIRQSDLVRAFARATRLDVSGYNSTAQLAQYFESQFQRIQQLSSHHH

Streptococcus [7] = test: GAS UMAA2166 growth inhibition – luminescence, BacTiterGlo, counter-screen for streptokinase expression inhibitor project, dose response (AID 1915); format: functional, organism-based;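 note: potency for reduction of bacterial viability or growth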
CAAX prenyl protease 2 [8] = molecular target: T3, CAAX prenyl protease 2 (Saccharomyces cerevisiae S288c, UniProt Q03530); format: biochemical
T3 sequence (Q03530 whole entry): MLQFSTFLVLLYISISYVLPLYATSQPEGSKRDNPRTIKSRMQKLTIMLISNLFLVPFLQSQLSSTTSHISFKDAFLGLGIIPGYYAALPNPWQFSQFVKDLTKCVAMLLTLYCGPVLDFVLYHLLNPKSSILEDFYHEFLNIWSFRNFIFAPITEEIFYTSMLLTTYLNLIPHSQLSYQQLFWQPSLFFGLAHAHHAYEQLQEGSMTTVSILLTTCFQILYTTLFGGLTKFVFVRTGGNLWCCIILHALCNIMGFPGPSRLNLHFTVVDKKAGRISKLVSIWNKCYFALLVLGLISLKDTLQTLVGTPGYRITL

Large T antigen = Large T antigen (Simian virus 40, UniProt P03070); format: functional, Betapolyomavirus macacae;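 note: Confirmatory-stage PubChem screen for compounds that inhibit SV40 T antigen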
[9] = molecular target: T4, Beta-adrenergic receptor kinase 1 (Homo sapiens, UniProt P25098); test: blockers of aptamer binding to GRK2 – biochemical, flow cytometry beads, FAM-aptamer, powder set 1, dose response (AID 588720)
T4 sequence (P25098 whole entry): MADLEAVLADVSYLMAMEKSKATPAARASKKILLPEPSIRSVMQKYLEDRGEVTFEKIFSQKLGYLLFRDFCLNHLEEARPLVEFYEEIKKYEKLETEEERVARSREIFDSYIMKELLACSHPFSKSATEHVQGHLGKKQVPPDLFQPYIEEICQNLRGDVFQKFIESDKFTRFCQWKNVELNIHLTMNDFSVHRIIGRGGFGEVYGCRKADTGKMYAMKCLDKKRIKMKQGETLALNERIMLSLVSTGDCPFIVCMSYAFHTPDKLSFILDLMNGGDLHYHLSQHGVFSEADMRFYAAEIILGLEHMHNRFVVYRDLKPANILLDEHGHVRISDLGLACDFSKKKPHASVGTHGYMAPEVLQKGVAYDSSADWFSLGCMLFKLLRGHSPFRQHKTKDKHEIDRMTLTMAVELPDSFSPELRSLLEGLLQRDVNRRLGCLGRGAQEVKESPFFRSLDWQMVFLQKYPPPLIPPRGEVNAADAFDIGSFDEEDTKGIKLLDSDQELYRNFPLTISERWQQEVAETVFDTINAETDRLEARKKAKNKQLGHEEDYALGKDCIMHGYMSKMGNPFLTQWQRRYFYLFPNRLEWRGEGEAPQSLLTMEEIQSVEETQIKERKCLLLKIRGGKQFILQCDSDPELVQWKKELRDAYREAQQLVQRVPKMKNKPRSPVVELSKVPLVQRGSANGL

[10] = molecular target: T5, Heat shock factor protein 1 (Mus musculus, UniProt P38532); test: enhancement of HSF1-driven luciferase signal – cell-based, NIH3T3, luminescence, dose retest, confirmation (AID 435004); format: functional;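 note: stress induced by proteasome inhibitor MG132 added 30 min after compound; luciferase reporter driven by HSF1 response element in NIH3T3 cells; actives raise luminescence as potentiators of the MG132 stress response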
T5 sequence (P38532 whole entry): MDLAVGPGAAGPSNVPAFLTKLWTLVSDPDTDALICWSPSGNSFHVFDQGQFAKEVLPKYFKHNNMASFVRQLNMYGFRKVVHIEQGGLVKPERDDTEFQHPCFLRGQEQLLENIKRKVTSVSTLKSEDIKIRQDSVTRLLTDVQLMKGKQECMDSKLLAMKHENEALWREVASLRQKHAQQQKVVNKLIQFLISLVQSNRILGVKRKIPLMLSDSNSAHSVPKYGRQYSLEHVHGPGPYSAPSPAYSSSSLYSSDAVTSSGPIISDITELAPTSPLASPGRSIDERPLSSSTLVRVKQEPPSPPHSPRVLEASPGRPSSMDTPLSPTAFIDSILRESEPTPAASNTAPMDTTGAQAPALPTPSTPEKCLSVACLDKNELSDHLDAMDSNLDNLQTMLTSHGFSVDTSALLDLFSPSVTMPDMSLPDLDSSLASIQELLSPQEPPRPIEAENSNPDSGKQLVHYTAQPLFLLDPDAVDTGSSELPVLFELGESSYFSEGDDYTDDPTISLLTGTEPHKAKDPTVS

[11] = HIV-1 AD8 envelope cell-cell fusion blockers – cherry-pick, dose response (AID 652062); format: functional, cell-based;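 note: luciferase signal from cell-cell fusion driven by HIV-1 clade B AD8 Env; potency is for inhibitors of fusion seen as a drop in luminescence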
Streptococcus [12] = test: Luminescence Microorganism-Based Dose Response Follow up to Identify Compounds Cytotoxic to Streptococcus. [Related pubchem assays: 1677 (Project Summary), 1915, 1914, 1902 (Retest at Dose), 1900 (Counter Screen), 1662 (Primary HTS)]; format: functional, organism-based
Streptokinase A = molecular target: T6, Streptokinase A (Streptococcus pyogenes serotype M1, UniProt P10520); test: viability-normalized secreted streptokinase activity reduction – plasminogen activation absorbance, OD405, dose response (AID 1914); format: functional, Streptococcus pyogenes M1 GAS;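 note: secreted streptokinase activity via plasminogen activation per viability signal from cell pellet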
T6 sequence (P10520 whole entry): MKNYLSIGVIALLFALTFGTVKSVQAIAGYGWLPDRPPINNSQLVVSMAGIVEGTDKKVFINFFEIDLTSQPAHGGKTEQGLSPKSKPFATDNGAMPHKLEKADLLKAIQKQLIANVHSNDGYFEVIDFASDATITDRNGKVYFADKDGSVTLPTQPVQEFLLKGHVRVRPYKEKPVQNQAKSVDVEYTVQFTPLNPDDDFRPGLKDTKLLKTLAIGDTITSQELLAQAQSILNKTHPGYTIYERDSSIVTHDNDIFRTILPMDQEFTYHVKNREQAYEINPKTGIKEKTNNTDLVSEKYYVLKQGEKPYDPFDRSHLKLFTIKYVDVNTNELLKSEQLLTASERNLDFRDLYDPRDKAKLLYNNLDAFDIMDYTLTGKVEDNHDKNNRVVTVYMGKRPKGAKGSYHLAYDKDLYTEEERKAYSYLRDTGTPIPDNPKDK

HEK293 [13] = test: cells; settings: Homo sapiens
[14] = blockers of HIV-1 envelope-mediated cell-cell fusion – cherry-pick, dose response (AID 652057); format: functional, cell-based
[15] = blockers of HIV-1 ZM109 envelope-driven cell-cell fusion – HeLa effector, CEM target cells, luciferase, cherry-pick, dose response (AID 652058); format: functional, cell-based;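 note: luciferase signal from HIV-1 Env mediated cell-cell fusion of effector and target cells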
[16] = viability loss in CEM21 cells – cell-based, CellTiter-Glo luminescence, cherry-picked, cytotoxicity control for viral fusion inhibitor project, dose response (AID 652042); format: functional;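 note: potency for signal decrease meaning cytotoxicity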
[17] = off-target signal loss in HeLa-CEM21 co-culture – HeLa F-luc CTL cells, cherry-picked, counter-screen for HIV-1 Env fusion inhibitor project, dose response (AID 652040); format: functional, cell-based;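 note: potency for signal decrease marking cytotoxic or nonspecific inhibition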
[18] = molecular target: Heat shock protein HSP 90-alpha (Homo sapiens, UniProt P07900); format: functional, organism-based
[19] = Luminescence Cell-Based Dose Retest to Confirm Inhibitors of Cancer Stem Cells. [Related pubchem assays (depositor defined):AID2717, AID2721]; format: functional; settings: Homo sapiens
HEK293 [20] = test: cells; settings: Homo sapiens; remark: listed apart in the source
Vero = test: cells; format: functional, Chlorocebus sabaeus; settings: Chlorocebus sabaeus, Vero
INS1 [21] = test: INS-1E mitochondrial potential rescue under cytokines – cell-based, JC-1 fluorescence ratio, dry powder, dose response (AID 488931); format: functional; settings: Rattus norvegicus
INS1 [22] = test: beta-cell survival under cytokine stress – INS-1E, ATP luminescence, dry powder, dose response (AID 488844); format: functional, cell-based; settings: Rattus norvegicus

Chain of CAAX prenyl protease 2 (Homo sapiens, UniProt Q9Y256) (Q9Y256 whole entry): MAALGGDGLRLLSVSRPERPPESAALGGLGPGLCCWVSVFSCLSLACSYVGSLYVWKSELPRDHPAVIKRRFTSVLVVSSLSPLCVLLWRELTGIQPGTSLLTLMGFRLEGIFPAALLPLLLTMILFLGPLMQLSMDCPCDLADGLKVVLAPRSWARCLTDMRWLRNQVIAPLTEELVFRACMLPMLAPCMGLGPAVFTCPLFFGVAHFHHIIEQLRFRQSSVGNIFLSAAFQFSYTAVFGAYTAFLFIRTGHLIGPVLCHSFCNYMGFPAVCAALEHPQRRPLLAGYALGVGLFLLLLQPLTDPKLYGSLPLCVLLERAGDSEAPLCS
Chain of Trypsin (P00761 whole entry): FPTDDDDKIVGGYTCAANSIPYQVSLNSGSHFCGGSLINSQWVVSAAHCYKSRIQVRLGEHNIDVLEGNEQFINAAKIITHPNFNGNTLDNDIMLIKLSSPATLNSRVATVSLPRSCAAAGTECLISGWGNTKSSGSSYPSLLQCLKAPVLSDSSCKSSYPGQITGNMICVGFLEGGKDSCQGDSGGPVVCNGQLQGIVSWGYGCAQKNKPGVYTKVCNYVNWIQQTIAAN
Chain of Large T antigen (P03070 whole entry): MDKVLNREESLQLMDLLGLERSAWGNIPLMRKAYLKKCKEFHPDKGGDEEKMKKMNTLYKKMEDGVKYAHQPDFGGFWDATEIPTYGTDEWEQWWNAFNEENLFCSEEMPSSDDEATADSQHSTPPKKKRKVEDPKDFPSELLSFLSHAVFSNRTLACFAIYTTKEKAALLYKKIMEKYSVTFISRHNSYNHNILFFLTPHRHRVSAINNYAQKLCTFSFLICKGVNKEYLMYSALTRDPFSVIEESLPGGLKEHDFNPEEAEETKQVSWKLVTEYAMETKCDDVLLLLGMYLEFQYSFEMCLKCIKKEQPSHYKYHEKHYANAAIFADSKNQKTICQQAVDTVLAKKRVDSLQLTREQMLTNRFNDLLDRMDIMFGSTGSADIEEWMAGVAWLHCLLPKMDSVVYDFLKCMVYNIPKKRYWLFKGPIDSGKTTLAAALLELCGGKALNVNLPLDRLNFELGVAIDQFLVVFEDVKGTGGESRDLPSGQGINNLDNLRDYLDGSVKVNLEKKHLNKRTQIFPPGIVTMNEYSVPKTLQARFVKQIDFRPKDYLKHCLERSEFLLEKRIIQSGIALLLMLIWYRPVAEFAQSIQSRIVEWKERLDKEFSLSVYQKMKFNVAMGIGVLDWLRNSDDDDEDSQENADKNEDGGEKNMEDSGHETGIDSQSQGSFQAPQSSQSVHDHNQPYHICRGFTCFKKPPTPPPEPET

## CCCC(=O)c1ccc(N2CCCCCC2)c(F)c1
HeLa
  AC50: 205 µM (active)

## CCCc1cc(-c2ccc3c(c2)COc2c4ccccc4nn2-3)on1
HeLa
  AC50: 40 µM (active)

## COc1ccc(-n2c(Cc3cccn3C)nnc2SCC(=O)Nc2ccc(C(C)=O)cc2)cc1
Escherichia coli [1]
  AC50: 56.8 µM (active)

## OCCCNc1ncnc2sc(-c3ccccc3)cc12
CAAX prenyl protease 2 [2]
  AC50: 8.43 µM (active)
Trypsin
  AC50: 7.39 µM (active)

## CN(C)c1ccc(O)c2c1CC1CC3C(N(C)C)C(=O)C(C(N)=O)=C(O)[C@@]3(O)C(=O)C1=C2O (stereo partly specified)
[3]
  EC50: 0.078 µM (active)
[4]
  EC50: 37 µM (active)
Escherichia coli [1]
  AC50: 11.4 µM (active)
Escherichia coli [5]
  AC50: 1.78 µM (active)
[6]
  EC50: > 300 µM (not active)
Streptococcus [7]
  EC50: 0.184 µM (active)

## CN1CC(C(=O)O)Cc2c1ccc1ccccc21 (stereo unspecified)
CAAX prenyl protease 2 [8]
  AC50: 9.61 µM (active)
CAAX prenyl protease 2 [2]
  AC50: 7.4 µM (active)
Trypsin
  AC50: 5.17 µM (active)
Large T antigen
  IC50: 19.4 µM (active)

## COC(=O)c1ccc(NC(=O)CCS(=O)(=O)c2ccc(Br)cc2)cc1
[9]
  EC50: 6.56 µM (active)

## CC(=O)N(C)c1ccc(OCC(O)Cn2c3ccc(Cl)cc3c3cc(Cl)ccc32)cc1 (stereo unspecified)
[3]
  EC50: 2.7 µM (active)
[10]
  EC50: > 260 µM (inactive)
[11]
  AC50: 4.49 µM (active)
Streptococcus [12]
  EC50: 9.63 µM (active)
Streptokinase A
  EC50: 2.66 µM (active)
HEK293 [13]
  EC50: > 59.6 µM (inactive)
[14]
  AC50: 2.19 µM (active)
[15]
  AC50: 2.38 µM (active)
[16]
  AC50: 23.2 µM (active)
[17]
  AC50: 2.47 µM (active)
[18]
  AC50: 5.12 µM (active)
[19]
  AC50: 1.59 µM (active)
HEK293 [20]
  EC50: > 59.6 µM (inactive)
Streptococcus [7]
  EC50: 80.6 µM (active)

## CC(=O)Oc1ccccc1C(=O)C=Cc1cccc([N+](=O)[O-])c1
HEK293 [13]
  EC50: > 59.6 µM (inactive)
Vero
  CC50: 16.5 µM (active)
[18]
  AC50: 3.01 µM (active)
HEK293 [20]
  EC50: > 59.6 µM (inactive)

## Cc1ccc(S(=O)(=O)N(C)C[C@@H]2Oc3c(NC(=O)Nc4ccccc4)cccc3C(=O)N([C@@H](C)CO)C[C@H]2C)cc1
INS1 [21]
  AC50: 81.6 µM (active)
INS1 [22]
  AC50: 27 µM (active)

Source: ChEMBL document CHEMBL1201862, “PubChem BioAssay data set” (2004)
